Earlier results in patent US20260216238A1, “TETRATHIOMOLYBDIC ACID FOR USE IN TREATING COPPER METABOLISM-ASSOCIATED DISEASES OR DISORDERS (WILSON DISEASE)” (Alexion Pharmaceuticals, Inc., priority 2023, published 2026).

System: patients with Wilson disease (WD)
Details: cited from earlier work; for patients with worsening of neurological symptoms on initiation of treatment: in vivo

## [Zn] [zinc]
Schilsky et al., 2022
  patients with gastric irritation or gastritis: ~ ⅓
long-term follow-up (Weiss et al., 2011)
  hepatic treatment failure: 14/88

## NCCNCCNCCN [trientine, N′-[2-(2-aminoethylamino)ethyl]ethane-1,2-diamine]
  patients with worsening of neurological symptoms on initiation of treatment: approximately 25%

## CC(C)(S)[C@@H](N)C(=O)O [penicillamine, (2S)-2-amino-3-methyl-3-sulfanylbutanoic acid]
Schilsky et al., 2022
  patients with severe side effects requiring drug withdrawal: approximately 30%
  patients with worsening of neurological symptoms on initiation of treatment: approximately 25%
